Entries after “also recorded” stand apart in the source; their conditions may differ. Like-named read-outs stand apart in the source and are kept apart here.
Assays:
[1] = Phase 1 multiple ascending dose (MAD) pharmacokinetics; type: in vivo, human; conditions: for half-life: human, plasma, oral
Protocol: A randomized, double-blind, placebo-controlled Phase 1 trial (ClinicalTrials.gov identifier: NCT05484414) (02/08/2022) was conducted to assess the safety, tolerability, food effect, pharmacokinetics (PK), and pharmacodynamics (PD) of single and multiple ascending doses of SRP-001 (Quotient Sciences, Miami FL USA; Fig. 3h - k and Methods). The trial was conducted in accordance with the International Council for Harmonisation of Technical Requirements for Pharmaceuticals for Human Use (ICH), Guideline for GCP: Consolidated Guidance (E6), attained Institutional Review Board approval, and all applicable regulatory requirements for Phase 1, First in Human clinical trials. Safety measurements and plasma samples to determine PK parameters were collected throughout the study for all subjects and reviewed by the Safety Review Committee. PK stopping criteria were established to assure that systemic exposure to SRP-001 was less than or equal to the systemic exposure achieved at the NOAEL doses in the 28-day repeat-dose toxicology studies in the rat and dog. The trial’s Safety Advisory Committee has approved the publication of the Phase 1 results.
SRP-001 was administered as an oral nanosuspension to 56 healthy volunteers across five Single Ascending Dose (SAD) and two Multiple Ascending Dose (MAD) cohorts, with 42 subjects receiving SRP-001 and 14 receiving a placebo.
A two-part randomized, double-blind, placebo-controlled Phase 1 trial was conducted to assess the safety, tolerability, PK and PD of SRP-001 ascending doses (Quotient Sciences, Miami, FL, USA). The study was conducted in accordance with the International Council for Harmonisation of Technical Requirements for Pharmaceuticals for Human Use (ICH), Guideline for GCP: Consolidated Guidance (E6), and applicable regulatory requirements(s) including clinical research guidelines established by the Basic Principles defined in the U.S. 21 CFR Parts 50, 56, and 312 and the principles enunciated in the Declaration of Helsinki (revised version Fortaleza 2013). The clinical protocol and informed consent form were reviewed and approved by an Institutional Review Board (IRB; Advarra IRB, 6100 Merriweather Drive, Suite 600, Columbia, MD 21,044; Quotient Protocol No. SRP-101 and Quotient Sciences Study No. QSC205130; Quotient Sciences Miami, 3898 NW 7th Street, Miami, FL 33,126.). The study comprises a SAD (Part 1) assessment that includes a food effect assessment that contributes data to inform a subsequent MAD (Part 2) dose-ranging study. Safety measurements were collected throughout the study for all subjects. Blood samples were collected to determine the PK parameters of SRP-001 (ClinicalTrials.gov identifier: NCT05484414) (02/08/2022).

[2] = system: beagle dogs; experiment: Cardiovascular effect in conscious telemetered beagle dogs (GLP); type: in vivo, dog; conditions: oral, 30, 90, 150 mg/kg
Protocol: The effects of SRP-001 on hERG current amplitude at physiologic temperatures were evaluated over a nominal concentration range of 0.1 μM to […]. A vehicle group (10% DMSO) was included in the study for comparison, and dofetilide (10 nM) was used as a reference substance. The vehicle and positive controls indicated appropriate sensitivity of the test systems. […] Next, the potential acute effects of oral SRP-001 on cardiovascular function in conscious telemetered beagle dogs was done using a Latin Square design; 4 male naïve beagle dogs each received vehicle (10% DMSO: 10% labrasol: 80% PEG400) and three doses (30, 90, and 150 mg/kg) of SRP-001 nanosuspension by oral gavage. […] A single dose was administered on the day of dosing, and a washout period of seven days was allowed between doses. One-min means of hemodynamic parameters, as well as ECG parameters and body temperature, were measured for a period of at least 24 h. One-min tracings of the ECGs were obtained at 15 min prior to dosing and at 30 min, 1, 2, 4, 8, 12, and 24 h post-dose. Qualitative evaluation of the ECGs was done by a board-certified veterinary cardiologist.

[3] = system: beagle dogs; conditions: dog, in vivo
Protocol: Two beagle dogs (1/sex) were administered 30, 100, 250, or 500 mg/kg SRP-001. […] After a period of at least 2 d (minimum of 44 h) following the previous dose of test article, additional dose levels of SRP-001, as indicated above, were administered by oral gavage to the same 2 dogs (1 male and 1 female). Each dose was based on the dog’s most recent body weight. Mortality/morbidity was observed twice daily and once prior to scheduled sacrifice. Body weights were recorded prior to randomization/selection, prior to each dose administration, and prior to scheduled sacrifice. At scheduled sacrifice, a gross necropsy was performed, and the tissues were appropriately discarded. […] Doses for Phase II of the study were set based on Phase I results. The actual dose amounts selected for Phase II of the study were 0, 30, 100, or 300 mg/kg/d of SRP-001. These doses were administered once daily for seven consecutive days to 1 Beagle dog/sex/dose.

[4] = Stability of API and oral nanosuspension; type: physicochemical
Protocol: The drug therapeutic candidate is manufactured in a two-step process (Latitude Pharmaceuticals, Inc., San Diego, CA, USA). First, SRP-001 is jet milled. Second, the milled API is dispersed in a solution comprising 1% hydroxypropyl cellulose (1% HPC) and sterile water for injection and subjected to wet milling. The target particle size is approximately D90 0.15 μm. […] An oral nanoparticle suspension containing 100 mg/mL SRP-001 in aqueous 1% HPC preserved with 0.1% sodium benzoate was manufactured for use in nonclinical studies as Lot LPI2021028 and stored at 5 °C ± 3 °C. […] The same formulation as above was manufactured under cGMP for use in clinical studies as Lot LPI2021031 and stored at 5 °C ± 3 °C. […] This lot has been placed on stability at 5 °C, 25 °C/60%RH, and 40 °C/75%RH. Finally, an appearance-matched placebo consisting of 2% microcrystalline cellulose in aqueous 1% HPC preserved with 0.1% sodium benzoate and 0.05% EDTA disodium dihydrate was manufactured under cGMP for use in clinical studies. The above oral suspensions were manufactured by Latitude Pharmaceuticals Inc. (San Diego, CA, USA).

CCN(CC)C(=O)c1ccccc1S(=O)(=O)NCC(=O)Nc1ccc(O)cc1 [SRP-001, N,N-diethyl-2-[[2-(4-hydroxyanilino)-2-oxo-ethyl]sulfamoyl]benzamide]
PK parameters on Day 5 versus Day 1 ([1]; Phase 1 MAD cohort): decrease | half-life ([1]; 500 mg, MAD, 500 mg dose, Day 1, read-out: Geometric mean T1/2 (converted)): 3.06 h | half-life ([1]; 500 mg, MAD, 500 mg dose, Day 5, read-out: Geometric mean T1/2 (converted)): 4.92 h | half-life ([1]; 1000 mg, MAD, 1,000 mg dose, Day 1, read-out: Geometric mean T1/2 (converted)): 4.05 h | half-life ([1]; 1000 mg, MAD, 1,000 mg dose, Day 5, read-out: Geometric mean T1/2 (converted)): 9.77 h | half-life ([1]; MAD cohorts, read-out: Arithmetic mean T1/2 (converted)): 5.57 h | half-life ([1]; Phase 1 trial, read-out: Half-life): 4.9 to 9.8 h | Cardiovascular findings (blood pressure, heart rate, ECG, body temperature) [2]: did not induce any biologically relevant effects; also recorded: No significant findings | Gross necropsy [3]: some red discoloration in the GI tract | Stability of the API ([4]; 25 °C/60%RH): at least 9 months | Stability of the API ([4]; 40 °C/75%RH): ≥ 6 months

Source: PMC11096368, “Transcriptomic signature, bioactivity and safety of a non-hepatotoxic analgesic generating AM404 in the midbrain PAG region” (Scientific Reports, 2024)
